Test results published in patent US11840686B2, “Modulation of prekallikrein (PKK) expression” (Ionis Pharmaceuticals, Inc., priority 2013, dated 2023).
Strand notation (5' to 3'): a small letter for the sugar, then the base; units joined by * are phosphorothioate-linked, units joined directly phosphodiester-linked; [ ] holds rarer units or linkages, { } end groups; capitals alone tell only the bases. e = 2'-O-(2-methoxyethyl) (MOE); [5mC] = 5-methylcytosine; d = 2'-deoxy (DNA)

Key:
human PKK mRNA [1] = assay: Antisense inhibition of human PKK mRNA in HepaRG cells, 5,000 nM (Example 2); type: cell-based
How it was run: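 HepaRG cells, 20,000 per well, were electroporated with 5,000 nM MOE gapmer (phosphorothioate, 5-methylcytosine) and incubated about 24 hours. PKK mRNA was quantified by qRT-PCR with primer probe set RTS3454, normalized to RIBOGREEN total RNA, and expressed as percent inhibition versus untreated controls.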

PKK mRNA = PKK mRNA in cynomolgus monkey liver (Example 8); type: in vivo; settings: 40 mg/kg s.c., loading then weekly to week 13; day 87 or 88, 48 h after final dose
Procedure: Cynomolgus monkeys were treated with ISIS antisense oligonucleotides selected from studies described above. Antisense oligonucleotide efficacy and tolerability were evaluated. The human antisense oligonucleotides tested are cross-reactive with the rhesus genomic sequence (GENBANK Accession No. NW_001118167.1 truncated from nucleotides 2358000 to 2391000 and designated herein as SEQ ID NO: 18).
On day 87 or 88, 48 hours after the final dose, RNA was extracted from liver tissue for real-time PCR analysis of PKK using primer probe set RTS3455 (forward sequence […], designated herein as SEQ ID NO: 23; reverse sequence […], designated herein as SEQ ID NO: 24; probe sequence […], designated herein as SEQ ID NO: 25). The results were normalized to the housekeeping gene, Cyclophilin. Results are presented as percent inhibition of PKK mRNA, relative to PBS control.

human PKK mRNA [2] = assay: Dose-dependent antisense inhibition of human PKK in HepaRG cells, 0.19-5.00 uM (Example 5); type: cell-based; settings: for percent inhibition of PKK mRNA, 0.19 μM: 0.19 μM antisense oligonucleotide; for percent inhibition of PKK mRNA, 0.56 μM: 0.56 μM antisense oligonucleotide; for percent inhibition of PKK mRNA, 1.67 μM: 1.67 μM antisense oligonucleotide; for percent inhibition of PKK mRNA, 5.00 μM: 5.00 μM antisense oligonucleotide
How it was run: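 HepaRG cells (20,000/well) were electroporated with antisense oligonucleotide at 0.19, 0.56, 1.67 and 5.00 μM and treated for about 16 hours. PKK mRNA was quantified by qRT-PCR with primer probe set RTS3454, normalised to RIBOGREEN total RNA, and IC50 was derived per oligonucleotide.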

PKK protein = assay: Plasma PKK protein levels in human KLKB1 transgenic mice (Example 7); type: in vivo; settings: plasma, twice a week for 3 weeks
Procedure: (§1) Transgenic mice containing a 37,390 base pair fragment of the human KLKB1 gene sequence (chromosome 4: position 187148672-187179625, accession no: NC_000004.11) were treated with ISIS antisense oligonucleotides selected from studies described above, which were evaluated for efficacy in this model.
(§2) Groups of transgenic mice were injected subcutaneously twice a week for 3 weeks with 2.5 mg/kg/week, 5.0 mg/kg/week, 10 mg/kg/week or 20 mg/kg/week of ISIS 546232, ISIS 546251, ISIS 546254, ISIS 546343, ISIS 546828, ISIS 547455, ISIS 547457, ISIS 547927, and ISIS 548048. One group of transgenic mice was injected subcutaneously twice a week for 3 weeks with PBS. Mice were euthanized 48 hours after the last dose, and organs and plasma were harvested for further analysis.
Plasma PKK protein levels were evaluated in all groups. Results are presented as percent inhibition of PKK protein, relative to PBS control.

human PKK mRNA [3] = assay: Human PKK mRNA in liver of human KLKB1 transgenic mice (Example 7); type: in vivo; settings: twice a week for 3 weeks
Procedure: as §1, §2
To evaluate the effect of ISIS oligonucleotides on target reduction, RNA was extracted from liver tissue for real-time PCR analysis of human PKK. Results are presented as percent inhibition of PKK mRNA, relative to PBS control.

[4] = Table 9 experiment, HepaRG cells, 20,000 cells per well, electroporation with 5,000 nM antisense oligonucleotide, approx. 24 hours, PKK mRNA by RT-PCR (RTS3454), relative to untreated control cells
[5] = Table 10 experiment, HepaRG cells, 20,000 cells per well, electroporation with 5,000 nM antisense oligonucleotide, approx. 24 hours, PKK mRNA by RT-PCR (RTS3454), relative to untreated control cells
[6] = HepaRG cells, electroporation, approximately 16 hours, Table 39
[7] = HepaRG cells, electroporation, approximately 16 hours, Table 41
[8] = 4 point dose response, HepaRG cells, Table 41
[9] = Table 34, HepaRG, electroporation, ~16 h
[10] = Table 34, PKK mRNA, HepaRG, electroporation, ~16 h
[11] = HepaRG cells, electroporation, approximately 16 hours, Table 36

Row | Substance | % inhibition (human PKK mRNA [1]; [4]) [%] | % inhibition of PKK mRNA in the cynomolgus monkey liver relative to the PBS control (PKK mRNA) [%] | % inhibition of PKK protein levels in the transgenic mice relative to the PBS control (PKK protein; 2.5 mg/kg/week sc) [%] | % inhibition of PKK protein levels in the transgenic mice relative to the PBS control (PKK protein; 5 mg/kg/week sc) [%] | % inhibition of PKK protein levels in the transgenic mice relative to the PBS control (PKK protein; 10 mg/kg/week sc) [%] | % inhibition of PKK protein levels in the transgenic mice relative to the PBS control (PKK protein; 20 mg/kg/week sc) [%] | % inhibition of PKK mRNA in the transgenic mice liver relative to the PBS control (human PKK mRNA [3]; 2.5 mg/kg/week sc) [%] | % inhibition of PKK mRNA in the transgenic mice liver relative to the PBS control (human PKK mRNA [3]; 5 mg/kg/week sc) [%] | % inhibition of PKK mRNA in the transgenic mice liver relative to the PBS control (human PKK mRNA [3]; 10 mg/kg/week sc) [%] | % inhibition of PKK mRNA in the transgenic mice liver relative to the PBS control (human PKK mRNA [3]; 20 mg/kg/week sc) [%] | percent inhibition of PKK at 5.00 μM (human PKK mRNA [2]; [7]) [%] | percent inhibition of PKK at 0.19 0μM (human PKK mRNA [2]; [7]) [%] | percent inhibition of PKK at 0.56 0μM (human PKK mRNA [2]; [7]) [%] | percent inhibition of PKK at 1.67 1μM (human PKK mRNA [2]; [7]) [%] | IC50 (human PKK mRNA [2]; [8]) [nM] | percent inhibition of PKK at 0.19 μM (human PKK mRNA [2]; [9]) [%] | percent inhibition of PKK at 0.56 μM (human PKK mRNA [2]; [9]) [%] | percent inhibition of PKK at 1.67 μM (human PKK mRNA [2]; [9]) [%] | percent inhibition of PKK at 5.00 μM (human PKK mRNA [2]; [9]) [%] | IC50 (human PKK mRNA [2]; [10]) [nM] | other results
1 | 547457 (antisense eA*eA*eG*eG*e[5mC]*dG*dA*dT*dA*dT*d[5mC]*dA*dT*dG*dA*eT*eT*e[5mC]*e[5mC]*e[5mC]) [compound 547457] | 89 | 89 | 0 | 4 | 31 | 60 | 0 | 69 | 45 | 62 |  |  |  |  |  |  |  |  |  |  | % inhibition (human PKK mRNA [1]; [5]): 92%; percent inhibition of PKK at 0.19 μM (human PKK mRNA [2]; [6]): 41%; percent inhibition of PKK at 0.56 μM (human PKK mRNA [2]; [6]): 65%; percent inhibition of PKK at 1.67 μM (human PKK mRNA [2]; [6]): 80%; percent inhibition of PKK at 5.00 μM (human PKK mRNA [2]; [6]): 85%; IC50 (human PKK mRNA [2]; 4 point dose response, HepaRG cells, Table 39): 300 nM; percent inhibition of PKK mRNA, 0.19 μM (human PKK mRNA [2]; HepaRG cells): 33%; percent inhibition of PKK mRNA, 0.56 μM (human PKK mRNA [2]; HepaRG cells): 42%; percent inhibition of PKK mRNA, 1.67 μM (human PKK mRNA [2]; HepaRG cells): 70%; percent inhibition of PKK mRNA, 5.00 μM (human PKK mRNA [2]; HepaRG cells): 83%; IC50 (human PKK mRNA [2]; HepaRG cells, 0.19-5.00 μM): 600 nM
2 | 546254 (eT*eG*e[5mC]*eA*eA*dG*dT*d[5mC]*dT*d[5mC]*dT*dT*dG*dG*d[5mC]*eA*eA*eA*e[5mC]*eA) [compound 546254] |  | 88 | 0 | 36 | 51 | 76 | 31 | 55 | 84 | 83 | 95 | 40 | 63 | 84 | 300 | 51 | 66 | 80 | 91 | 200 | % inhibition (human PKK mRNA [1]; Table 8, HepaRG cells, electroporation with 5,000 nM antisense oligonucleotide, approx. 24 hours, PKK mRNA by RT-PCR (RTS3454), relative to untreated control cells): 95%
3 | 546343 (antisense e[5mC]*e[5mC]*e[5mC]*e[5mC]*e[5mC]*dT*dT*d[5mC]*dT*dT*dT*dA*dT*dA*dG*e[5mC]*e[5mC]*eA*eG*e[5mC]) [compound 546343] | 97 | 74 | 0 |  | 38 | 79 | 46 |  | 66 | 86 | 95 | 37 | 32 | 83 | 400 | 28 | 64 | 87 | 87 | 400 | % inhibition (human PKK mRNA [1]; [5]): 91%
4 | 546251 (eG*eG*e[5mC]*eA*eA*dA*d[5mC]*dA*dT*dT*d[5mC]*dA*d[5mC]*dT*d[5mC]*e[5mC]*eT*eT*eT*eA) [compound 546251] |  | 90 | 22 | 30 | 52 | 69 | 13 | 51 | 66 | 79 |  |  |  |  |  |  |  |  |  |  | % inhibition (human PKK mRNA [1]; Table 7, HepaRG cells, electroporation with 5,000 nM antisense oligonucleotide, approx. 24 hours, PKK mRNA by RT-PCR (RTS3454), relative to untreated control cells): 92%; percent inhibition of PKK at 0.19 μM (human PKK mRNA [2]; [11]): 31%; percent inhibition of PKK at 0.56 μM (human PKK mRNA [2]; [11]): 60%; percent inhibition of PKK at 1.67 μM (human PKK mRNA [2]; [11]): 99%; percent inhibition of PKK at 5.00 μM (human PKK mRNA [2]; [11]): 89%; IC50 (human PKK mRNA [2]; 4 point dose response, HepaRG cells, Table 36): 500 nM; percent inhibition of PKK mRNA, 0.19 μM (human PKK mRNA [2]; HepaRG cells): 19%; percent inhibition of PKK mRNA, 0.56 μM (human PKK mRNA [2]; HepaRG cells): 45%; percent inhibition of PKK mRNA, 1.67 μM (human PKK mRNA [2]; HepaRG cells): 91%; percent inhibition of PKK mRNA, 5.00 μM (human PKK mRNA [2]; HepaRG cells): 97%; IC50 (human PKK mRNA [2]; HepaRG cells, 0.19-5.00 μM): 600 nM
5 | 546828 (eA*e[5mC]*eA*eG*eT*dA*dT*d[5mC]*dA*d[5mC]*dT*dG*dT*dA*d[5mC]*eT*eA*eG*eT*eT) [compound 546828] |  | 45 | 0 | 25 | 36 | 93 | 77 | 62 | 32 | 83 | 97 | 0 | 64 | 89 | 200 | 39 | 58 | 87 | 93 | 300 | % inhibition (human PKK mRNA [1]; Table 13, human PKK mRNA in HepaRG cells, 5-10-5 gapmers): 95%
